# Test results taken from patent US12077503B2, “Substituted cyclic amides and their use as herbicides” (FMC CORPORATION, priority 2015, dated 2024).
# Legend:
# Type in all cases: in vivo
# Kochia (Kochia scoparia) [1] = assay: Test A preemergence; conditions: Bassia scoparia, pre-emergence, 240 h, 0 to 100 scale where 0 is no effect and 100 is complete control, read-out: Kochia plant response rating
# How it was run: (§1)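 Preemergence directed soil spray on seeded pots, or postemergence application to plants 2–10 cm, one- to two-leaf. Solvent mixture non-phytotoxic, with surfactant. Scored ~10 d later, visually, 0–100 vs untreated.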
# [2] = system: barnyardgrass (Echinochloa crus-galli); assay: Test A preemergence; conditions: Echinochloa crus-galli, pre-emergence, 240 h, 0 to 100 scale where 0 is no effect and 100 is complete control, read-out: Barnyardgrass plant response rating
# How it was run: as §1
# [3] = system: giant foxtail (Setaria faberii); assay: Test A preemergence; conditions: Setaria faberi, pre-emergence, 240 h, 0 to 100 scale where 0 is no effect and 100 is complete control, read-out: Foxtail, Giant plant response rating
# How it was run: as §1
# [4] = system: pigweed (Amaranthus retroflexus); assay: Test A preemergence; conditions: Amaranthus retroflexus, pre-emergence, 240 h, 0 to 100 scale where 0 is no effect and 100 is complete control, read-out: Pigweed plant response rating
# [5] = system: ragweed (common ragweed, Ambrosia elatior); assay: Test A preemergence; conditions: Ambrosia artemisiifolia, pre-emergence, 240 h, 0 to 100 scale where 0 is no effect and 100 is complete control, read-out: Ragweed plant response rating
# How it was run: as §1
# [6] = system: ryegrass, Italian (Italian ryegrass, Lolium multiflorum); assay: Test A preemergence; conditions: Lolium multiflorum, pre-emergence, 240 h, 0 to 100 scale where 0 is no effect and 100 is complete control, read-out: Ryegrass, Italian plant response rating
# How it was run: as §1
# [7] = system: Galium (catchweed bedstraw, Galium aparine); assay: Test A postemergence; conditions: Galium, post-emergence, 240 h, read-out: Galium plant response rating (0 to 100 scale)
# How it was run: as §1
# Kochia (Kochia scoparia) [8] = assay: Test A postemergence; conditions: Bassia scoparia, post-emergence, 240 h, read-out: Kochia plant response rating (0 to 100 scale)
# How it was run: as §1
# [9] = system: barnyardgrass (Echinochloa crus-galli); assay: Test A postemergence; conditions: Echinochloa crus-galli, post-emergence, 240 h, read-out: Barnyardgrass plant response rating (0 to 100 scale)
# How it was run: as §1
# [10] = system: blackgrass (Alopecurus myosuroides); assay: Test A postemergence; conditions: Alopecurus myosuroides, post-emergence, 240 h, read-out: Blackgrass plant response rating (0 to 100 scale)
# How it was run: as §1
# corn (Zea mays) = assay: Test A postemergence; conditions: Zea mays, post-emergence, 240 h, read-out: Corn plant response rating (0 to 100 scale)
# How it was run: as §1
# [11] = system: giant foxtail (Setaria faberii); assay: Test A postemergence; conditions: Setaria faberi, post-emergence, 240 h, read-out: Foxtail, Giant plant response rating (0 to 100 scale)
# How it was run: as §1
# [12] = system: pigweed (Amaranthus retroflexus); assay: Test A postemergence; conditions: Amaranthus retroflexus, post-emergence, 240 h, read-out: Pigweed plant response rating (0 to 100 scale)
# How it was run: as §1
# [13] = system: ragweed (common ragweed, Ambrosia elatior); assay: Test A postemergence; conditions: Ambrosia artemisiifolia, post-emergence, 240 h, read-out: Ragweed plant response rating (0 to 100 scale)
# How it was run: as §1
# [14] = system: ryegrass, Italian (Italian ryegrass, Lolium multiflorum); assay: Test A postemergence; conditions: Lolium multiflorum, post-emergence, 240 h, read-out: Ryegrass, Italian plant response rating (0 to 100 scale)
# How it was run: as §1
# [15] = system: wheat (Triticum aestivum); assay: Test A postemergence; conditions: Triticum aestivum, post-emergence, 240 h, Postemergence, 31 g ai/ha; 0 is no effect, 100 is complete control; read-out: Wheat plant response rating (0 to 100 scale)
# How it was run: as §1
# [16] = system: barnyardgrass (Echinochloa crus-galli); assay: Test B flooded paddy test; conditions: Echinochloa crus-galli, 250 g ai/ha, Flood; 0 to 100 scale where 0 is no effect and 100 is complete control; read-out: Barnyardgrass plant response rating
# How it was run: (§2)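 Evaluation by eye, against controls, occurred 13–15 d post-treatment in a greenhouse, using a 0 (no effect) to 100 (complete control) scale. Application was into the paddy water, 3 cm deep over the soil, on 2-leaf plants.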
# [17] = system: ducksalad (Heteranthera limosa); assay: Test B flooded paddy test; conditions: Heteranthera limosa, 250 g ai/ha, Flood; 0 to 100 scale where 0 is no effect and 100 is complete control; read-out: Ducksalad plant response rating
# How it was run: as §2
# rice (Oryra sativa) = assay: Test B flooded paddy test; conditions: Oryza sativa, 250 g ai/ha, Flood; 0 to 100 scale where 0 is no effect and 100 is complete control; read-out: Rice plant response rating
# How it was run: as §2
# [18] = system: sedge, umbrella (small-flower umbrella sedge, Cyperus difformis); assay: Test B flooded paddy test; conditions: Cyperus difformis, 250 g ai/ha, Flood; 0 to 100 scale where 0 is no effect and 100 is complete control; read-out: Sedge, Umbrella plant response rating
# How it was run: as §2
# [19] = 125 g ai/ha, preemergence, visual injury rating, approximately 10 d
# [20] = 125 g ai/ha, postemergence, visual injury vs untreated controls after approx. 10 d, 0 = no effect, 100 = complete control
# [21] = Postemergence, 31 g ai/ha, 0 is no effect, 100 is complete control
smiles,measurement,setting,value
CN1C[C@H](c2ccc(Cl)c(F)c2)[C@@H](C(=O)Nc2cccc(F)c2F)C1=O [Compound 1265],pest or weed control at 31 g/ha,"Kochia (Kochia scoparia) [1]; 31 g ai/ha, Preemergence",30%
same,pest or weed control at 125 g/ha,Kochia (Kochia scoparia) [1]; [19],70%
same,pest or weed control at 31 g/ha,"[2]; 31 g ai/ha, Preemergence",80%
same,pest or weed control at 125 g/ha,[2]; [19],90%
same,pest or weed control at 31 g/ha,"[3]; 31 g ai/ha, Preemergence",90%
same,pest or weed control at 125 g/ha,[3]; [19],90%
same,pest or weed control at 31 g/ha,"[4]; 31 g ai/ha, Preemergence",0%
same,pest or weed control at 125 g/ha,[4]; [19],80%
same,pest or weed control at 31 g/ha,"[5]; 31 g ai/ha, Preemergence",0%
same,pest or weed control at 125 g/ha,[5]; [19],0%
same,pest or weed control at 31 g/ha,"[6]; 31 g ai/ha, Preemergence",50%
same,pest or weed control at 125 g/ha,[6]; [19],60%
same,pest or weed control at 125 g/ha,[7]; [20],60%
same,pest or weed control at 31 g/ha,[7]; [21],60%
same,pest or weed control at 125 g/ha,Kochia (Kochia scoparia) [8]; [20],70%
same,pest or weed control at 31 g/ha,Kochia (Kochia scoparia) [8]; [21],50%
same,pest or weed control at 125 g/ha,[9]; [20],90%
same,pest or weed control at 31 g/ha,[9]; [21],80%
same,pest or weed control at 125 g/ha,[10]; [20],50%
same,pest or weed control at 31 g/ha,[10]; [21],0%
same,plant injury at 125 g/ha,corn (Zea mays); [20],70%
same,plant injury at 31 g/ha,corn (Zea mays); [21],30%
same,pest or weed control at 125 g/ha,[11]; [20],80%
same,pest or weed control at 31 g/ha,[11]; [21],80%
same,pest or weed control at 125 g/ha,[12]; [20],70%
same,pest or weed control at 31 g/ha,[12]; [21],30%
same,pest or weed control at 125 g/ha,[13]; [20],30%
same,pest or weed control at 31 g/ha,[13]; [21],0%
same,pest or weed control at 125 g/ha,[14]; [20],30%
same,pest or weed control at 31 g/ha,[14]; [21],0%
same,plant injury at 31 g/ha,[15],0%
same,pest or weed control at 250 g/ha,[16],60%
same,pest or weed control at 250 g/ha,[17],90%
same,pest or weed control at 250 g/ha,rice (Oryra sativa),45%
same,pest or weed control at 250 g/ha,[18],0%
